Test [1] deals with CD4+ T cells from MycHSP70-immunized HLA-DR4 transgenic mice. The test is described as follows: Splenic CD4+ T cell proliferation from MycHSP70-immunized HLA-DR4 transgenic mice in response to epitopes. Type of test: cell-based, mouse. To be noted: antigen 10 μg/mL, 72 h, irradiated splenocytes, 3H-thymidine. Here is the method:
(§1) Figure 5 Immunization of HLA-DR4 transgenic mice with MycHSP70. (A) HLA-DR4 transgenic mice were immunized with recombinant MycHSP70. Serum anti-MycHSP70 and anti-mouse BiP antibody titers were measured in the 21 days following the first immunization. (B) Splenic CD4+ T cell proliferation from MycHSP70-immunized HLA-DR4 transgenic mice in response to MycHSP70_287–306 and BiP336–355 epitopes. Proliferation was determined by the incorporation of [3]-H thymidine. Data were representative of at least three independent trials. ***p < 0.001.
(§2) HLA-DR4 transgenic mice were obtained from Taconic, immunized twice (day 0, 14) with 100 μg of MycHSP70 with the same volume of complete Freund’s adjuvant subcutaneously into the tails, and sacrificed on day 21. MACS-purified CD4^+ T cells (1 × 10^5/mL) were cultured with irradiated splenocytes (1 × 10^6/mL) and an antigen (10 μg/mL) in RPMI 1640 medium supplemented with 5% FCS, 2 mM L-glutamine, 100 U/ml penicillin, 100 μg/ml streptomycin, and 5 × 10^−5 M 2-mercaptoethanol in a humidified incubator at 37 °C, 5% CO2, for 72 h. ^3H-thymidine was pulsed to each well, cells were harvested after an 18-hour incubation, and analyzed with a scintillation counter.

The subject of test [2] is T cells in RA. The settings on record: cited from earlier work. The text has this:
MycHSP70 and BiP share 50% of their amino acid sequences, and MycHSP70_287–306 is located at a position corresponding to that of the BiP-derived HLA-DR4 effector epitope. We previously identified two major BiP-derived HLA-DR4 epitopes in RA. […] MycHSP70_287–306 strongly induces proliferation and is regarded as an effector epitope. MycHSP70_287–306 and BiP336–355 share 50% of the amino acids in their core sequences, which bind HLA-DR pockets. They also share the P4V residue, whi ...

Test [3] concerns HLA-DR4 transgenic mice. Description: Immunization of HLA-DR4 transgenic mice with MycHSP70, serum antibody titers by ELISA. The test is classed as in vivo, mouse. The settings on record: 100 μg MycHSP70 with complete Freund's adjuvant subcutaneously. Here is the method:
as §1
Serum antibodies were measured by ELISA as previously reported. Briefly, 96-well plates (Thermo Fisher Scientific) were coated with 5 μg/mL of each antigen and dissolved in 0.1 M NaHCO3. […]
as §2

“RSTMKPVQKVLEDSDLKKSD [BiP336–355, reference compound]”: the “CD4+ T cell proliferation in response to peptide” value in test [1] is “significant proliferation”. Moreover, the “T cell type recognizing the BiP-derived HLA-DR4 epitope” value in test [2] is “recognized by effector T cells”.
For the substance “MycHSP70: recombinant Mycobacterial heat shock protein 70 (NCBI GenBank AF2122/97)”, the “serum antibody titers to MycHSP70” value in test [3] (day 0 and 14, serum day 21) is “elevation”. Besides, the “serum antibody titers to BiP” value in test [3] (day 0 and 14, serum day 21, anti-mouse BiP) is listed as “elevation”.

Source of the values: PMC4772543, “Immune responses to Mycobacterial heat shock protein 70 accompany self-reactivity to human BiP in rheumatoid arthritis” (Scientific Reports, 2016).
